Bridge positions count the residues as written; N and C are the ends. Ends that are not written are not given here. Bounds are passed on as bounds.

Assay [1] has as its system C. albicans SC5314. The experiment in a line: Murine in vivo model of disseminated candidiasis: survival and body weight. The note with it: for survival efficacy compared with 5 mg/kg fluconazole: 0.25 mg/kg Cyclic Peptide 5, 5 mg/kg RTD-1; for survival efficacy compared with 5 mg/kg fluconazole / survival of treated mice compared to saline controls, log-rank P: FIG. 9; for survival of treated mice compared to saline controls, log-rank P: observed 26 days p.i.; for survival efficacy: 30 days p.i.; for survival as efficacy metric compared with Cyclic Peptide 5: candidemia model, FIGS. 10 to 15; for survival by end point analysis compared with fluconazole: χ^2 analysis at day 30 p.i. Here is the method:
Mice were infected i.v. at T=0 with 3×10^5 blastospores of C. albicans genetically defined reference strain SC5314.
Mice were infected i.v. at T=0 with 3×10^5 blastospores of C. albicans SC5314. At T=24 h, mice were treated i.p. daily for 7 d w.
In activity studies the synthetic cyclic tetradecapeptide Cyclic Peptide 5 (SEQ ID NO. 6), which was identified initially as having significant antifungal activity, was used as a model peptide. Briefly, 7-8 week old, immunocompetent, female BALB/c mice were challenged i.v. at T=0 with 3×10^5 CFU of C. albicans SC5314. […]
Under these test protocols C. albicans-infected mice treated with saline presented with ruffled fur and significant weight loss, and became moribund within 5-10 days, by which time there was >30% body weight loss.

For assay [2], the system named is C. albicans SC5314. Nature of the assay: Renal fungal burden in kidney homogenates, murine disseminated candidiasis model. Type of assay: in vivo. The note with it: FIG. 16; for renal fungal burden compared with fluconazole / renal fungal burden compared with fluconazole, P (Fisher's LSD test): long term survivors 30 days p.i. An excerpt: In activity studies the synthetic cyclic tetradecapeptide Cyclic Peptide 5 (SEQ ID NO. 6), which was identified initially as having significant antifungal activity, was used as a model peptide. Briefly, 7-8 week old, immunocompetent, female BALB/c mice were challenged i.v. at T=0 with 3×10^5 CFU of C. albicans SC5314.

The subject of assay [3] is C. albicans. The note with it: cited from earlier work.
In assay [4] the test system is susceptible and multiple drug resistant strains of C. albicans. The note with it: long term, on treatment with RTD-1; cited from earlier work.
The mark [5] stands for this setting: 5 mg/kg i.p. daily for 7 d from T=24 h.

With “Cyclic Peptide 5: model synthetic cyclic tetradecapeptide θ-defensin analog; positions 3-14,1,2: C I C R R R F C L C R R G V (GVCICRRRFCLCRR; cyclic backbone; Cyclic Peptide 5)”, the “survival efficacy compared with 5 mg/kg fluconazole” value in assay [1] is “more effective than 5 mg/kg of fluconazole”. In addition, in assay [1] (0.25 mg/kg Cyclic Peptide 5 vs 5 mg/kg RTD-1, i.p. once a day for 7 days, BALB/c mice), the “survival efficacy compared with RTD-1” value was “more effective than 5 mg/kg of RTD-1”. The “survival of treated mice compared to saline controls, log-rank P” value in assay [1] (0.25 mg/kg i.p. daily for 7 d from T=24 h) was 2.3×10^−7. Also, in assay [1] (0.25 mg/kg or 0.1 mg/kg, results similar to treatment with saline), the “survival efficacy (FIG. 10)” value is listed as “relatively ineffective”. Further, in assay [2], the “renal fungal burden compared with fluconazole” value was “reduced fungal burden to a greater extent than fluconazole” and the “renal fungal burden compared with fluconazole, P (Fisher's LSD test)” value is listed as 3×10^−3.
As to “Cyclic Peptide 4: synthetic cyclic tetradecapeptide θ-defensin analog; positions 3-14,1,2: C I C R R R A C L C R R G L (GLCICRRRACLCRR; cyclic backbone; Cyclic Peptide 4)”, the survival efficacy result in assay [1] (0.25 mg/kg i.p. daily for 7 d) is reported as “effective”. In addition, in assay [1], the “survival as efficacy metric compared with Cyclic Peptide 5” value is given as “equivalent or superior to Cyclic Peptide 5” and the “survival by end point analysis compared with fluconazole” value was “more effective than fluconazole”. Further, in assay [2], the “renal fungal burden compared with fluconazole” value is “reduced fungal burden to a greater extent than fluconazole” and the “renal fungal burden compared with fluconazole, P (Fisher's LSD test)” value worked out at 0.02.
Turning to “Cyclic Peptide 1: synthetic cyclic tetradecapeptide θ-defensin analog; positions 3-14,1,2: C S C R R R F C L C R R G V (GVCSCRRRFCLCRR; cyclic backbone; Cyclic Peptide 1)”, the survival efficacy entry in assay [1] (0.1 mg/kg i.p. daily for 7 d) is recorded as “effective”. For the same compound, in assay [1] (0.25 mg/kg i.p. daily for 7 d), the survival efficacy entry is “effective”. Further, in assay [1], the “survival as efficacy metric compared with Cyclic Peptide 5” value is given as “equivalent or superior to Cyclic Peptide 5” and the “survival by end point analysis compared with fluconazole” value is “more effective than fluconazole”. In addition, in assay [2], the “renal fungal burden compared with fluconazole” value is given as “reduced fungal burden to a greater extent than fluconazole” and the “renal fungal burden compared with fluconazole, P (Fisher's LSD test)” value is 3.5×10^−5.
With “Cyclic Peptide 2: synthetic cyclic tetradecapeptide θ-defensin analog; positions 3-14,1,2: C S C R R R F C I C R R G V (cyclo(GVCSCRRRFCICRR); disulfide 5-10, 3-12)”, the “survival as efficacy metric compared with Cyclic Peptide 5” value in assay [1] is “equivalent or superior to Cyclic Peptide 5”.
With “Cyclic Peptide 3: synthetic cyclic tetradecapeptide θ-defensin analog; positions 3-14,1,2: C I C R R R V C I C R R G V (GVCICRRRVCICRR; cyclic backbone; Cyclic Peptide 3)”, the survival efficacy entry in assay [1] (0.1 mg/kg i.p. daily for 7 d) is “effective”. In addition, in assay [1], the “survival as efficacy metric compared with Cyclic Peptide 5” value is reported as “equivalent or superior to Cyclic Peptide 5” and the “survival by end point analysis compared with fluconazole” value is “more effective than fluconazole”. Moreover, in assay [2], the “renal fungal burden compared with fluconazole” value is recorded as “reduced fungal burden to a greater extent than fluconazole” and the “renal fungal burden compared with fluconazole, P (Fisher's LSD test)” value is reported as 7.4×10^−3.
As for `OC(Cn1cncn1)(Cn1cncn1)c1ccc(F)cc1F` [Fluconazole, fluconazole, reference compound], the “survival of treated mice compared to saline controls, log-rank P” value in assay [1] (setting [5]) was 3.4×10^−6. Further, the renal fungal burden result in assay [2] (5 mg/kg, long term survivors 30 days p.i. vs moribund saline controls) is reported as “reduced fungal burden”.
For the compound “RTD-1: naturally occurring θ-defensin of rhesus monkeys, cyclic octadecapeptide with 3 disulfide bonds (cyclo(GFCRCLCRRGVCRCICTR); disulfide (positions not given here); not fully specified (bridges); also: three disulfide bonds, pairing not given here; listed as Macaca mulatta)”, in assay [1], the “survival efficacy compared with 5 mg/kg fluconazole” value is on record as “more effective than 5 mg/kg of fluconazole”. In addition, in assay [1] (setting [5]), the “survival of treated mice compared to saline controls, log-rank P” value was 3.4×10^−6. Besides, in assay [3] (presence of serum), the “in vitro antifungal activity in presence of serum” value is reported as “abolished by the presence of serum”. Besides, the “in vitro active concentration relative to concentrations effective in vivo” value in assay [3] (vs murine animal model studies) is listed as no less than 50 fold. Besides, in assay [4], the “pro-inflammatory cytokine production in vivo” value was “reduction in long term production of pro-inflammatory cytokines”.
As to `CC[C@H](C)C[C@H](C)CCCCCCCCC(=O)N[C@H]1C[C@@H](O)[C@@H](NCCN)NC(=O)[C@@H]2[C@@H](O)CCN2C(=O)[C@H]([C@H](O)CCN)NC(=O)[C@H]([C@H](O)[C@@H](O)c2ccc(O)cc2)NC(=O)[C@@H]2C[C@@H](O)CN2C(=O)[C@H]([C@@H](C)O)NC1=O` [Caspofungin, caspofungin, reference compound], in assay [1] (setting [5]), the “survival of treated mice compared to saline controls, log-rank P” value is reported as 3.4×10^−6.
As to “Cyclic Peptide 6: synthetic cyclic tetradecapeptide θ-defensin analog; positions 3-14,1,2: C R C R R G V C R C R R G V (GVCRCRRGVCRCRR; not fully specified (bridges); ends and bridges not checked; also: cyclic (type not given here))”, in assay [1], the “survival as efficacy metric compared with Cyclic Peptide 5” value is recorded as “equivalent or superior to Cyclic Peptide 5” and the “survival by end point analysis compared with fluconazole” value is “more effective than fluconazole”. Besides, in assay [1] (peptides at 0.25 mg/kg, FIG. 15), the “survival compared with fluconazole and Cyclic Peptide 5” value is “survival that exceeded that of both a prior art antifungal drug (fluconazole) and Circular Peptide 5”.

These data come from patent publication US12012440B2, “Compositions and methods for treatment of fungal infections” (priority 2020, dated 2024).
